Experimental data: article PMC9963287 (Viruses, 2023)

How the values were obtained:
M^pro [1] = molecular target: T1, M^pro (Severe acute respiratory syndrome coronavirus 2, UniProt P0DTD1); experiment: Bio-layer interferometry binding kinetics assay; set-up: species or system SARS-CoV-2; conditions: BLI, 1:1 binding model, 30 °C; for Kd: KD = koff/kon
SARS-CoV-2 M^pro = SARS-CoV-2 M^pro (Severe acute respiratory syndrome coronavirus 2, UniProt P0DTD1); experiment: In vitro FRET M^pro inhibition assay; assay type: biochemical; conditions: 50 nM M^pro; for IC50: FRET assay, inhibitor 3.125-100 μM, read-out: IC50 against M^pro enzymatic activity; for inhibition at 50 µM: initial screen at 50 μM compound, read-out: inhibitory activity against M^pro
[2] = set-up: method as in earlier work; conditions: in animals; cited from earlier work
M^pro [3] = molecular target: T1, M^pro; conditions: at a concentration of 50 μM; cited from earlier work

| Compound | koff (M^pro [1]) [s⁻¹] | kon (M^pro [1]) [M⁻¹ s⁻¹] | Kd (M^pro [1]) [µM] | IC50 (SARS-CoV-2 M^pro) [µM] | inhibition at 50 µM (SARS-CoV-2 M^pro) [%] | side effects [2] | M^pro inhibitory activity (M^pro [3]) |
| --- | --- | --- | --- | --- | --- | --- | --- |
| O=C(CC[C@@H](C(=O)Nc1cccc([N+](=O)[O-])c1)n1cnc2ccccc2c1=O)Nc1cccc([N+](=O)[O-])c1 [G1] | 0.00325 | 125 | 26 | ~20 | > 50 |  |  |
| Nc1ccc(OC(=O)CC[C@@H](C(=O)Oc2ccc(N)c([N+](=O)[O-])c2)n2cnc3ccccc3c2=O)cc1[N+](=O)[O-] [G4] | 0.413 | 16200 | 25.5 | ~20 | > 50 |  |  |
| CC(C)CC(NC(=O)OCc1ccccc1)C(=O)NC(CC1CCNC1=O)C(O)S(=O)(=O)O (stereo not shown) [GC376] |  |  |  |  |  | delayed adult teeth development |  |
| COc1cccc(Nc2c(C(N)=O)cnc3c(C)cc(S(=O)(=O)c4cccc(C(=O)N(C)C)c4)cc23)c1 [GSK-256066] |  |  |  |  |  |  | more than 30% |
| CC(O)(CS(=O)(=O)c1ccc(F)cc1)C(=O)Nc1ccc(C#N)c(C(F)(F)F)c1 (stereo not shown) [bicalutamide] |  |  |  |  |  |  | more than 30% |
